Assay: mn = molality of the nth substance listed, in mol/kg
Conditions: 101 kPa, Liquid; for speed of sound: Linear variable-path acoustic interferometer

CCCCn1cc[n+](C)c1.[Br-] [1-butyl-3-methylimidazolium bromide] + CCO
Conditions	mass density, 298.15 K [kg/m3]	mass density, 303.15 K [kg/m3]	mass density, 308.15 K [kg/m3]	mass density, 313.15 K [kg/m3]	mass density, 318.15 K [kg/m3]	speed of sound, 298.15 K [m/s]	speed of sound, 303.15 K [m/s]	speed of sound, 308.15 K [m/s]	speed of sound, 313.15 K [m/s]	speed of sound, 318.15 K [m/s]
m1 = 0.0271	787.221	782.917	778.581	774.206	769.798	1145.2	1128.3	1111.6	1094.9	1078.3
m1 = 0.0587	789.649	785.356	781.029	776.665	772.267	1147.3	1130.5	1113.8	1097.1	1080.6
m1 = 0.0846	791.567	787.288	782.969	778.613	774.213	1148.6	1131.9	1115.3	1098.6	1082.1
m1 = 0.1257	794.595	790.319	786.01	781.663	777.288	1150.8	1134	1117.4	1101	1084.5
m1 = 0.1587	796.91	792.647	788.343	784.006	779.628	1152.7	1136.1	1119.4	1103	1086.5
m1 = 0.2261	801.67	797.404	793.117	788.795	784.413	1155.8	1139.7	1123.2	1106.8	1090.5
m1 = 0.3162	807.896	803.664	799.393	795.091	790.753	1160.7	1144.3	1128	1111.7	1095.4

CCCCn1cc[n+](C)c1.[Br-] [1-butyl-3-methylimidazolium bromide] + CO
Conditions	mass density, 298.15 K [kg/m3]	mass density, 303.15 K [kg/m3]	mass density, 308.15 K [kg/m3]	mass density, 313.15 K [kg/m3]	mass density, 318.15 K [kg/m3]	speed of sound, 298.15 K [m/s]	speed of sound, 303.15 K [m/s]	speed of sound, 308.15 K [m/s]	speed of sound, 313.15 K [m/s]	speed of sound, 318.15 K [m/s]
m1 = 0.0473	790.393	785.688	780.958	776.204	771.426	–	1090.5	1074.3	1058.2	1042.3
m1 = 0.0767	792.789	788.091	783.371	778.627	773.86	–	1092.6	1076.5	1060.5	1044.7
m1 = 0.1497	798.175	793.495	788.794	784.073	779.323	1114.1	1098	1081.9	1066	1050.2
m1 = 0.2612	806.303	801.654	796.988	792.294	787.582	1121.7	1105.7	1089.7	1073.9	1058.2
m1 = 0.3434	812.207	807.572	802.921	798.249	793.553	1127.1	1111.1	1095.2	1079.4	1063.8
m1 = 0.4912	822.389	817.794	813.177	808.542	803.883	1136.4	1120.6	1104.8	1089.2	1073.8
m1 = 0.7273	837.955	833.402	828.837	824.253	819.66	1151	1135.4	1119.9	1104.5	1089.2
m1 = 0.9756	852.578	848.25	843.727	839.188	834.634	1164.1	1148.7	1133.4	1118.2	1103.1
m1 = 1.405	876.422	871.97	867.512	863.046	858.563	1186.2	1171	1156	1141	1126.3
m1 = 2.446	924.879	920.559	916.245	911.924	907.596	1233.3	1218.8	1204.4	1190.1	1175.9
m1 = 3.896	976.589	972.412	968.238	964.059	959.889	1287.4	1273.5	1259.7	1246	1232.5

Reference: the NIST ThermoML archive (doi:10.1016/j.jct.2005.01.009)
